According to patent US7217413B1, “Use of novel agents inducing cell death in synergy with interferons” (priority 1998, dated 2007):
Residues, ends and D or L forms follow the SMILES beside them. *: point of attachment. Cbz = O=C(OCc1ccccc1)*; CH2F = FC*

Columns and labels:
REF (T) PML cells [1] = test: Kinetics of synchronized cell death after ZnCl2 induction of PML; format: cell-based, rat
Protocol: (§1) The cells were treated for 2 hours with 150 μM of ZnCl2 (unless otherwise stated) in the presence or absence of heat-inactivated foetal calf serum, and then the cells were washed and incubated in a ZnCl2-free medium. The TUNEL test was carried out according to the manufacturer's instructions (Boehringer Mannheim, kit for detection of cell death in situ), with the exception of the fixing step (4% formaldehyde in phosphate PBS buffer for 10 minutes). The cellular DNA content was evaluated by incubating for 10 minutes in propidium iodide at 50 μg/ml, in the presence of Rnase A at 100 μg/ml at 4° C. Analysis of the expression of phosphatidylserine on the outer sheet of the cell membranes was carried out using Annexin-V-fluos labelling (Boehringer Mannheim) and a loss of mitochondrial polarity with Rhodamin 123 (molecular probes) according to the manufacturer's instructions. The samples were analysed on a FACScan analyser (Lysis II software, Becton Dickinson). […] After centrifugation, 20 μl of supernatant and 180 μl of reaction buffer (100 mM Hepes, pH 7.4, 2% of glycerol, 5 mM DTT, 0.5 mM EDTA, 50 μM DEVD-pNA (Biomol Research Laboratories)) were mixed and the absorbence at 405 nm was measured after incubating for four hours at 37° C. […]

REF (T) PML cells [2] = test: TUNEL test of cell death triggered by PML (ZnCl2 induction); format: cell-based, rat
Protocol: (§2) The REF (T) and MEF (T) cells are rat and mouse embryonic fibroblasts immortalized by an SV4DT expression vector. […] For clonogenicity tests, the cells were transfected with 10 μg of SRαtkneo-PML or SRαkneo on culture dishes 10 cm in diameter and selected with neomycin (500 μg/ml). To obtain inducible clones, a pool of RET (T) cells was cotransfected with the plasmid pKSmMt-PML and a hygromycin resistance vector (DSP-Hygro). The resistant colonies were examined for the expression of PML after four hours of treatment with ZnCl2 (150 μM) and subjected to a second cycle of cloning by limiting dilution. Inducible CHO clones were constructed in a similar manner. The monocytes were prepared according to the method of Estaquier et al., 1997. Etoposide (used at 100 μM for 16 to 24 hours) was obtained from Biomol Research Laboratories, zVAD (benzyloxycarbonyl-Val-Ala-Asp fluoromethyl ketone, used at 250 μg/ml) is marketed by Bachem and rat IFNα by Access BioMedical. The human α-interferon was provided by Schering-Plough. The antibodies against the human PML protein are described in the article by Daniel et al., 1993. The Western blot experiments with the endogenous rat PML protein were carried out with the monoclonal antibody 5E10 which detects both rat PML and human PML.
as §1, with “Analysis of the expression of phosphatidylserine on the outer sheet of the cell membranes was carried out using Annexin-V-fluos labelling (Boehringer Mannheim) and a loss of mitochondrial polarity with Rhodamin 123 (molecular probes) according to the manufacturer's instructions.” left out
It is known that the execution of programmed cell death involves the proteolytic activation—of caspases which induce the phenotypic changes in apoptosis by cleavage of nuclear and cytoplasmic proteins (Salvesen et al., 1997). […] Unlike etoposide, no significant cleavage of the colorimetric caspase substrates, YVAD-pNa (class 1 caspase, Boehringer Mannheim) and DEVD-pNA (class 3 caspase, Boehringer Mannheim) after induction with PML could be detected (FIG. 2B).

Primary monocytes = test: Survival of primary monocytes exposed to α-interferon; format: cell-based
REF (T) PML cells [3] = test: TUNEL test of cell death induced by IFNα; format: cell-based, rat; settings: for cell death evaluated by TUNEL (positive TUNEL signal): with 1 000 U/ml of IFNα
Protocol: as §2
The cells were treated for 2 hours with 150 μM of ZnCl2 (unless otherwise stated) in the presence or absence of heat-inactivated foetal calf serum, and then the cells were washed and incubated in a ZnCl2-free medium. The TUNEL test was carried out according to the manufacturer's instructions (Boehringer Mannheim, kit for detection of cell death in situ), with the exception of the fixing step (4% formaldehyde in phosphate PBS buffer for 10 minutes). The cellular DNA content was evaluated by incubating for 10 minutes in propidium iodide at 50 μg/ml, in the presence of Rnase A at 100 μg/ml at 4° C. Analysis of the expression of phosphatidylserine on the outer sheet of the cell membranes was carried out using Annexin-V-fluos labelling (Boehringer Mannheim) and a loss of mitochondrial polarity with Rhodamin 123 (molecular probes) according to the manufacturer's instructions. The samples were analysed on a FACScan analyser (Lysis II software, Becton Dickinson). For the cleavage of the substrate with caspases, 5×10^6 cells were washed in PBS buffer, and incubated for one hour at 4° C. in 200 μl of lysis buffer (10 mM Hepes, pH 7.4, 2 mM EDTA, 2 mM DTT, 0.1% CHAPS). After centrifugation, 20 μl of supernatant and 180 μl of reaction buffer (100 mM Hepes, pH 7.4, 2% of glycerol, 5 mM DTT, 0.5 mM EDTA, 50 μM DEVD-pNA (Biomol Research Laboratories)) were mixed and the absorbence at 405 nm was measured after incubating for four hours at 37° C. The anti-PARP polyclonal antibody SA-252 is marketed by Biomol Research Laboratories.
The table below represents the cell death, evaluated by TUNEL, of REF (T) PML cells treated for two days with 1 000 U/ml of IFNα and 10^−6 M of As2O3 or of zVAD.

PML protein = test: Western blot of PML protein expression and location on nuclear bodies; format: cell-based, rat; settings: REF (T) cells
Protocol: The REF (T) and MEF (T) cells are rat and mouse embryonic fibroblasts immortalized by an SV4DT expression vector. […] The Western blot experiments with the endogenous rat PML protein were carried out with the monoclonal antibody 5E10 which detects both rat PML and human PML.

[4] = treated for two days, 10^-6 M of As2O3 or of zVAD

Row | Molecule | time to synchronized cell death of the whole cell population (REF (T) PML cells [1]; 50 μM of ZnCl2) [h] | time to synchronized cell death of the whole cell population (REF (T) PML cells [1]; 150 μM of ZnCl2) | positive cells / positive TUNEL signal (REF (T) PML cells [2]; ZnCl2 alone) [%] | time to death of the whole cell population (Primary monocytes; zVAD added with α-interferon) [h] | cell death with zVAD alone (Primary monocytes; zVAD alone after seven days, three cultures out of eleven) | cell death with zVAD alone (Primary monocytes; zVAD alone for 20 days, most of the primary cultures (8/11)) | cell death evaluated by TUNEL (positive TUNEL signal) (REF (T) PML cells [3]; [4]) [%] | cell death evaluated by TUNEL (REF (T) PML cells [3]; without IFNα, treated for two days, 10^-6 M of As2O3 or of zVAD) [%] | effect on cell death induced by PML (REF (T) PML cells [2]; ZnCl2 induction, FIG. 1C) | effect on apoptosis induced by etoposide (REF (T) PML cells [2]; etoposide-treated cells, FIG. 1C) | positive TUNEL signal (REF (T) PML cells [2]; zVAD and ZnCl2) [%] | levels of expression of PML (PML protein) | time to complete disappearance of the cell culture (Primary monocytes; α-interferon alone (1 000 U/ml)) | kinetics of cell death induction (REF (T) PML cells [3]; compared with ZnCl2 induction) | cell death evaluated by TUNEL (positive TUNEL signal) (REF (T) PML cells [3]; treated for two days, 10^-6 M of As2O3 or of zVAD, listed as α-interferon) [%]
1 | [Cl-].[Cl-].[Zn+2] [ZnCl2] | 48 | six | 45 |  |  |  |  |  |  |  |  |  |  |  | 
2 | COC(=O)C[C@H](NC(=O)[C@H](C)NC(=O)[C@@H](NC(=O)OCc1ccccc1)C(C)C)C(=O)CF [zVAD, benzyloxycarbonyl-Val-Ala-Asp(O-methyl) fluoromethyl ketone] (Cbz-Val-Ala-Asp(OMe)-CH2F) |  |  |  | ≤ 24 | induced the death of part of the culture | Little or no cell death | 60 | 5 | does not inhibit cell death induced by PML | blocks apoptosis induced by etoposide | 71 | increased |  |  | 
3 | IFNα |  |  |  |  |  |  | 42 |  |  |  |  | induces rat PML | seven | same kinetics as 50 μM ZnCl2 | 42
